Consider three compounds from US20080161607A1 (Teva Pharmaceuticals USA, Inc., priority 2002, published 2008).

Data set [1] can be described thus: Storage stability of bulk sertraline hydrochloride Form II; polymorph content by XRPD. As to conditions: for Polymorph Content of bulk sertraline hydrochloride, content of Form I (in parentheses) / Polymorph Content of bulk sertraline hydrochloride, Polymorphic Form detected (I or II): 40° C., 75% RH; for Polymorph Content of bulk sertraline hydrochloride, content of Form I (in parentheses): Form I relative to all sertraline hydrochloride. The text has this: X-Ray powder diffraction data was obtained by using a SCINTAG powder X-Ray diffractometer model X′TRA equipped with a solid state detector. Copper radiation of 1.5418 Å was used. The diffractometer was equipped with a round aluminum sample holder with round zero background quartz plate having a cavity of 25(diameter)*0.5(depth) mm.

For data set [2] the following is noted: granulation in isopropyl alcohol, ethyl acetate, hexane at 40 E to 60 E C; disclosed in U.S. Pat. No. 5,248,699; cited from earlier work.

Consider `CN[C@H]1CC[C@@H](c2ccc(Cl)c(Cl)c2)c2ccccc21.Cl` [Example 1, (1S-cis)-4-(3,4 dichlorophenyl)-1,2,3,4-tetrahydro-N-methyl-1-naphthalenamine hydrochloride], for which the “Polymorph Content of bulk sertraline hydrochloride, content of Form I (in parentheses)” value in data set [1] (1 month) is under 1%; in data set [1] (2 months), 2%; in data set [1] (3 months), 2%; in data set [1] (4 months), 4%; in data set [1] (t = 0), under 1%. Also, the “Polymorph Content of bulk sertraline hydrochloride, Polymorphic Form detected (I or II)” value was “II > I” in data set [1] (1 month, hydrochloride); “II > I” in data set [1] (2 months, hydrochloride); “II > I” in data set [1] (3 months); “II > I” in data set [1] (4 months); “II > I” in data set [1] (t = 0, hydrochloride).

Turning to `CN[C@H]1CC[C@@H](c2ccc(Cl)c(Cl)c2)c2ccccc21.Cl` [Form II, (1S-cis)-4-(3,4 dichlorophenyl)-1,2,3,4-tetrahydro-N-methyl-1-naphthalenamine hydrochloride], the result of granulation in data set [2] is “conversion to Form I”.

For `CN[C@H]1CC[C@@H](c2ccc(Cl)c(Cl)c2)c2ccccc21.Cl` [sertraline hydrochloride], in data set [1] (Form II containing at least about 1% w/w Form I), the “stability during storage under stress conditions” value is given as “not stable”.
